Like-named read-outs stand apart in the source and are kept apart here.
Tests used:
[1] = test system: LS180 human colon cancer cells; experiment: [14C]-paclitaxel efflux from pretreated LS180 cells; assay type: cell-based; conditions: LS180 cells induced 48 hours with 10 μM paclitaxel, 10 μM docetaxel or 100 nM LG268
Method: Taxane-induced drug efflux was measured using pretreated LS180 human colon cancer cells. The rate of drug efflux was measured. […] Individual data points are the means of triplicate determinations, error bars represent standard deviation and the lines are lines of regression. The slope of each line (rate of efflux) was compared to the slope obtained in the control (untreated) cells using an analysis of covariance. […] The entire experiment was performed three times with similar results. […] The cells were then incubated in media supplemented with 10 μM [^14C]-paclitaxel (4.9 μCi/umol, Moravek Biochemicals, Brea, Calif.) for 15 minutes. The uptake of ^14C-paclitaxel reached maximum levels at 10-12 minutes (data not shown). After 15 minutes, the cells were then rapidly centrifuged through silicone oil to remove all traces of extracellular radioactivity, resuspended in fresh media, and cell counts determined. At multiple time points over the next 10 minutes, triplicate aliquots of the cell suspension (approx. 1×10^5 cells/aliquot) were again centrifuged through silicon oil and the radioactivity in the cell pellet measured by quench-corrected liquid scintillation counting. The rate of [^14C]-paclitaxel efflux was determined as the slope of the [^14C]-paclitaxel versus time plots using all data. The slope for each inducer was compared to the slope obtained in the control (untreated) cells using an analysis of covariance.

[2] = target: T1, human SXR ligand binding domain (Homo sapiens, UniProt O75469); experiment: Gal-L-SXR (Gal-SXR) Gal4 reporter transient transfection assay in CV-1 cells; conditions: CV-1 cells; 10 μM compound (LG268 100 nM); about 24 h
T1 sequence (O75469 107-434 limits assumed): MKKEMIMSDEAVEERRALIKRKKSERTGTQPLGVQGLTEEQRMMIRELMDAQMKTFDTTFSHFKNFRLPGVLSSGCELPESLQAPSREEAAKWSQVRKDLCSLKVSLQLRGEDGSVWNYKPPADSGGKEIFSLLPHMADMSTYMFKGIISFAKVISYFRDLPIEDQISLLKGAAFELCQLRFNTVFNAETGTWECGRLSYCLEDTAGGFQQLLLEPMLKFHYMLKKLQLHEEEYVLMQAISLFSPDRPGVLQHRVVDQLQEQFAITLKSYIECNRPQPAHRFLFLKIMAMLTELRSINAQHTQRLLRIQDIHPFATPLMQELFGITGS
Excerpt: Use of a standard model heterologous cell system to reconstitute SXR agonist and antagonist responsiveness allows SXR activity to be monitored in the absence of the metabolic events which may obscure the process being tested. Any suitable heterologous cell system may be used to test the activation of potential or known SXR nuclear receptor ligands, as long as the cells are capable of being transiently transfected with the appropriate DNA which expresses receptors, reporter genes, response elements, and the like. Cells which constitutively express one or more of the necessary genes may be used as well. Cell systems that are suitable for the transient expression of mammalian genes and which are amenable to maintenance in culture are well known to those skilled in the art. […] Suitable reporter gene constructs are well known to skilled workers in the fields of biochemistry and molecular biology. Activity of the reporter gene can be conveniently normalized to the internal control and the data plotted as fold activation relative to untreated cells.
(§1) The Gal4 reporter activity was normalized to the internal β-galactosidase control and the data plotted as fold activation relative to untreated cells. All transfections contained the Gal4 reporter and a β-galactosidase expression vector as an internal control.
(§2) Izbicka et al., Ann. Oncol.
Gal-PXR containing the ligand binding domain of mouse PXR (#AF031814) was obtained from Bruce Blumberg.
Transient Transffection Assays—CV-1 cells were grown and transfected as described.

[3] = target: T2, human LXRα (Homo sapiens, UniProt Q13133); experiment: Nuclear receptor specificity transfection assay; assay type: cell-based
T2 construct: expressed in transfected cells; host or cells: CV-1
T2 sequence (Q13133 1-447): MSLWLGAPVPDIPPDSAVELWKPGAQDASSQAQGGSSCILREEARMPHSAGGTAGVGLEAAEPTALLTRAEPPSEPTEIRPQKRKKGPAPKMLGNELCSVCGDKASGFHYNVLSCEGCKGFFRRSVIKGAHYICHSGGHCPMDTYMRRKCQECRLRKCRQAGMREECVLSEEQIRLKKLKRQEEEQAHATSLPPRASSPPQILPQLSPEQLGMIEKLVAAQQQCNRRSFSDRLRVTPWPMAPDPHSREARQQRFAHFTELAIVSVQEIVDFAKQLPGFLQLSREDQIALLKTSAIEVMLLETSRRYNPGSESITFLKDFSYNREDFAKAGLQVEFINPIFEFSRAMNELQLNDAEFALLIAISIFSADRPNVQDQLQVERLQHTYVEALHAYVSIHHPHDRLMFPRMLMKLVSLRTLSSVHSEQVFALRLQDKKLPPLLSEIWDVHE

[4] = target: T3, mouse PPARδ (Mus musculus, UniProt P35396); experiment: Nuclear receptor specificity transfection assay; assay type: cell-based
T3 construct: expressed in transfected cells; host or cells: CV-1
T3 sequence (P35396 1-440): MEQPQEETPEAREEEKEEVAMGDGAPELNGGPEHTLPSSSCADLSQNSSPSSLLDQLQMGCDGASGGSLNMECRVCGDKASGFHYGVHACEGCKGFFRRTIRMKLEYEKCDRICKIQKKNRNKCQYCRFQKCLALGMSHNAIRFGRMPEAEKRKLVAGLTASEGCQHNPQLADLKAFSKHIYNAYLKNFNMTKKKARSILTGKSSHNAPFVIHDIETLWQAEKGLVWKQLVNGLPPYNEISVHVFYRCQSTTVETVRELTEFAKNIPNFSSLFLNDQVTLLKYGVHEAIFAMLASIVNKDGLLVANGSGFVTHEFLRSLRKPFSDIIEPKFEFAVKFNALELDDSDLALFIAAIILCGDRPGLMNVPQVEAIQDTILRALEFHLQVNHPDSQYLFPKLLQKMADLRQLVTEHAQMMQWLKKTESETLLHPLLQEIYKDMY

[5] = target: T4, mouse PPARα (Mus musculus, UniProt P23204); experiment: Nuclear receptor specificity transfection assay; assay type: cell-based
T4 construct: expressed in transfected cells; host or cells: CV-1
T4 sequence (P23204 1-468): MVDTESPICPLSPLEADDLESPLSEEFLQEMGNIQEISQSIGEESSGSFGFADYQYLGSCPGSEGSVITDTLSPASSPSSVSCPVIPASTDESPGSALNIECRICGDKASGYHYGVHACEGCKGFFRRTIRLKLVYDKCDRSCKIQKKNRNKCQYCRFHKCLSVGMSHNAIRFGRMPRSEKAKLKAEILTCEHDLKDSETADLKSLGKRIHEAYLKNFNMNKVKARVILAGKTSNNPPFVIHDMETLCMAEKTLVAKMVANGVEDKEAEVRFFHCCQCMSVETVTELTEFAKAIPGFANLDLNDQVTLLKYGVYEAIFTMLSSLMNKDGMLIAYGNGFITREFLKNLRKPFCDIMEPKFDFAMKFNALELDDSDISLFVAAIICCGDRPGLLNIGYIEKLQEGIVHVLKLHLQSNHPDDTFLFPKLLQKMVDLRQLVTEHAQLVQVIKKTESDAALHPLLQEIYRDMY

[6] = target: T5, FXR (Homo sapiens, UniProt Q96RI1); experiment: Nuclear receptor specificity transfection assay; assay type: cell-based; conditions: 3 μM ritonavir
T5 construct: expressed in transfected cells; host or cells: CV-1

[7] = test system: MDR1 mRNA; experiment: Northern analysis of MDR1 expression in human LS180 cells; assay type: cell-based; conditions: 3 μM ritonavir, 24 hour
Method: as §2
(§3) Northern Blot Analysis—Primary human hepatocytes were obtained from Clonetics (Walkersville, Md.) and cultured according to the vendors instructions. Cells were treated with the indicated compounds for 24 hours and total RNA was isolated using the Trizol reagent.
(§4) After 24 hour exposure to the compounds, total RNA was prepared and analyzed by northern analysis using probes for MDR1 and the GAPDH control.

[8] = target: T6, human RXRα ligand binding domain (Homo sapiens, UniProt P19793); experiment: Gal-L-RXR Gal4 reporter transient transfection assay in CV-1 cells; assay type: cell-based
T6 construct: expressed in transfected cells; host or cells: CV-1
T6 sequence (P19793 203-462): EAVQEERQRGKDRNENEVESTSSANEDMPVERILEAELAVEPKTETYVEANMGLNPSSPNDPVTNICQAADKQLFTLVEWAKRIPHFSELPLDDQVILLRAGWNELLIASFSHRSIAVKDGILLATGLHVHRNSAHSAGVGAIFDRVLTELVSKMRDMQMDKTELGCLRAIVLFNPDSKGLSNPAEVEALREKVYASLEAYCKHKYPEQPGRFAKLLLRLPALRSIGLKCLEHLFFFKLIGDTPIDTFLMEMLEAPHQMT
Excerpt: as §1

[9] = target: T7, mouse PPARγ (Mus musculus, UniProt P37238); experiment: Nuclear receptor specificity transfection assay; assay type: cell-based; conditions: 3 μM ritonavir
T7 construct: expressed in transfected cells; host or cells: CV-1

[10] = target: T8, human RARα (Homo sapiens, UniProt P10276); experiment: Nuclear receptor specificity transfection assay; assay type: cell-based; conditions: 3 μM ritonavir
T8 construct: expressed in transfected cells; host or cells: CV-1

[11] = target: T9, mouse CARβ (Mus musculus, UniProt O35627); experiment: Nuclear receptor specificity transfection assay / LXRE×3-TK-luc reporter with CARβ in CV-1 cells; assay type: cell-based
T9 sequence (O35627 1-358): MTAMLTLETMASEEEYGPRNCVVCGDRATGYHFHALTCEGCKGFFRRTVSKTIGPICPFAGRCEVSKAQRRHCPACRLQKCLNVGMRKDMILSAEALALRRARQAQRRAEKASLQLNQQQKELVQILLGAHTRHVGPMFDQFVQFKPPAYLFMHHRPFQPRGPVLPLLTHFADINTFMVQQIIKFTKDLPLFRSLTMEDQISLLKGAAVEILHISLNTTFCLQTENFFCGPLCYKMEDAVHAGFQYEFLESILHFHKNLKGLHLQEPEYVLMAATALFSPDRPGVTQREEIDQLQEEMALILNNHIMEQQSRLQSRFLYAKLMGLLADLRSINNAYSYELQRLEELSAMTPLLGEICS

[12] = test system: MRP2 mRNA; experiment: Northern analysis of MRP2 expression in primary human hepatocytes; assay type: cell-based
Method: as §3
After 24 hour exposure to the compounds, total RNA was prepared and analyzed by northern analysis using probes for MRP2 and the GAPDH control. […] CV-1 cells were transiently transfected with a Gal4 reporter and a vector expressing Gal4-fused to the ligand binding domain of human SXR (Gal-SXR).
as §4

[13] = test system: thyroid hormone receptor β (TRβ); conditions: 3 μM ritonavir
[14] = target: human ERα (Homo sapiens, UniProt P03372); conditions: 3 μM ritonavir
human ERα, sequence (P03372 whole entry): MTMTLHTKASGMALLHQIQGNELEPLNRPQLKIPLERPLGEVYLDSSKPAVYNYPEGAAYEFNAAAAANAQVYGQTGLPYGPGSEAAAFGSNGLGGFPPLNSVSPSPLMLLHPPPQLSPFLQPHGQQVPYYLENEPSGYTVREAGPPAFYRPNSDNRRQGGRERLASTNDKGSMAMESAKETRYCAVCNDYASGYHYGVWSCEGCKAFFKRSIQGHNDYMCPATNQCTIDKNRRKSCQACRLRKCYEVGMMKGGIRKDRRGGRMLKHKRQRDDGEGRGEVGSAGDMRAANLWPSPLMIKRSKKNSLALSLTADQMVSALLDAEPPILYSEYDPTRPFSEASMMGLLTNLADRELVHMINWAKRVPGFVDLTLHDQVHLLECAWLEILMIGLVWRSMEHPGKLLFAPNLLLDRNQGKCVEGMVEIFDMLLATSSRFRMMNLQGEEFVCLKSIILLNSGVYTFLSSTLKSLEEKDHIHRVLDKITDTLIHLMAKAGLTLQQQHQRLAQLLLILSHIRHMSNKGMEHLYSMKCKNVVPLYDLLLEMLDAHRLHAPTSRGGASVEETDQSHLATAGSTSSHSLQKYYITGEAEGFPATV

T7 sequence (P37238 whole entry): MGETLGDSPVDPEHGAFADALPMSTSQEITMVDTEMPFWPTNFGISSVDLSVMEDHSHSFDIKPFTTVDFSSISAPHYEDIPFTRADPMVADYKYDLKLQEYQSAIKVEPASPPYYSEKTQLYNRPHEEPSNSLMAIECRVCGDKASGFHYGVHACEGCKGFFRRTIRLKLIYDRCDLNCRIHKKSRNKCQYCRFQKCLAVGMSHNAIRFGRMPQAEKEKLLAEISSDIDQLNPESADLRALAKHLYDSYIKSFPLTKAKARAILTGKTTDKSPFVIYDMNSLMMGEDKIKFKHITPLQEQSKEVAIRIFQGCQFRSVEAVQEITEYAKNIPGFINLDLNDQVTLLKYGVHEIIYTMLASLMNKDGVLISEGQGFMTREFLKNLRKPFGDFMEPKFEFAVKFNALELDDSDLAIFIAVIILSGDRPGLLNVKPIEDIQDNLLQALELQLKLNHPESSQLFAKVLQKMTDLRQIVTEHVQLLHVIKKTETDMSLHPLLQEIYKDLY
T8 sequence (P10276 whole entry): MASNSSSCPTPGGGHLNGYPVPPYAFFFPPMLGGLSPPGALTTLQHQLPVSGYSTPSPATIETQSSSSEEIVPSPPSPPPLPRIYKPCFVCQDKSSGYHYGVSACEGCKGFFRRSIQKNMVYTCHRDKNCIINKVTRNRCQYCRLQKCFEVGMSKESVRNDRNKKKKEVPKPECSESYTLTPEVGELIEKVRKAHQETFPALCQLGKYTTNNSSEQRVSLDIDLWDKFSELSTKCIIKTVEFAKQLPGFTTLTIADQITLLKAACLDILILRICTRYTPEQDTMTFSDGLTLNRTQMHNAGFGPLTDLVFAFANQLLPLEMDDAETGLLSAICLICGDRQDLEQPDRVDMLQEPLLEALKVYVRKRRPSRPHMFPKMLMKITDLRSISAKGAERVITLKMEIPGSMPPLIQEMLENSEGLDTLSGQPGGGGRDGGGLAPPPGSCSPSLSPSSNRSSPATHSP
T5 sequence (Q96RI1 whole entry, species assumed): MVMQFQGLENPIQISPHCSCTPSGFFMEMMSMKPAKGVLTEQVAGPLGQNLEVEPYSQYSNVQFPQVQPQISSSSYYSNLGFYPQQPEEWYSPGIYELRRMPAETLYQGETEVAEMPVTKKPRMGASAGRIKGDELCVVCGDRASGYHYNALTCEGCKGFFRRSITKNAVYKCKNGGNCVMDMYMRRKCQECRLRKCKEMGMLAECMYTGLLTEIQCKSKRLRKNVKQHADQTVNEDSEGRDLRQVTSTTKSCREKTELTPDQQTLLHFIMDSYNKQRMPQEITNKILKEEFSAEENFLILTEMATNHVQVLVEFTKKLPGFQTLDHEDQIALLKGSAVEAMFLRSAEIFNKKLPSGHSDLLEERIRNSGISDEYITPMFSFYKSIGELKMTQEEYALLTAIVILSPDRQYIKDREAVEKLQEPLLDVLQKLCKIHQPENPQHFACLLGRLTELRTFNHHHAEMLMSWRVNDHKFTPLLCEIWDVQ

Compound: Cc1cc2c(cc1C1(c3ccc(C(=O)O)cn3)CC1)C(C)(C)CCC2(C)C [LG268]
- rate of [14C]-paclitaxel efflux versus untreated cells [1]: did not differ from controls

Compound: CC(=O)O[C@H]1C(=O)[C@@]2(C)[C@H]([C@H](OC(=O)c3ccccc3)[C@]3(O)C[C@H](OC(=O)[C@H](O)[C@@H](NC(=O)c4ccccc4)c4ccccc4)C(C)=C1C3(C)C)[C@]1(OC(C)=O)CO[C@@H]1[C@@H](O)[C@@H]2O [6α-hydroxypaclitaxel]
- activation of Gal-L-SXR chimeric receptor [2]: No activation

Compound: COC(=O)CC[C@@H](C)[C@H]1CC[C@H]2[C@@H]3C[C@H](O)[C@@H]4C[C@H](O)CC[C@]4(C)[C@H]3CC[C@]12C [hyodeoxycholic acid methyl ester]
- fold activation by cognate ligand (positive control) ([3]; 30 μM): 4.5 fold

Compound: CCCCC[C@H](O)/C=C/[C@@H]1[C@H]2C/C(=C/CCCC(=O)O)C[C@H]2C[C@H]1O [arbaprostacyclin]
- fold activation by cognate ligand (positive control) ([4]; 1 μM): 14 fold

Compound: Cc1cccc(Nc2cc(Cl)nc(SCC(=O)O)n2)c1C [Wy 14,643]
- fold activation by cognate ligand (positive control) ([5]; 5 μM): 13 fold

Compound: CC(=O)O[C@H]1C(=O)[C@@]2(C)[C@H]([C@H](OC(=O)c3ccccc3)[C@]3(O)C[C@H](OC(=O)[C@H](O)[C@@H](NC(=O)c4ccccc4)c4ccc(O)cc4)C(C)=C1C3(C)C)[C@]1(OC(C)=O)CO[C@@H]1C[C@@H]2O [3′-p-hydroxypaclitaxel]
- activation of Gal-L-SXR chimeric receptor [2]: No activation

Compound: CC(C)c1nc(CN(C)C(=O)N[C@H](C(=O)N[C@@H](Cc2ccccc2)C[C@H](O)[C@H](Cc2ccccc2)NC(=O)OCc2cncs2)C(C)C)cs1 [ritonavir]
- effect on FXR reporter activity [6]: no effect
- effect on PPARδ reporter activity ([4]; 3 μM ritonavir): no effect
- MDR1 mRNA expression [7]: strongly induced
- effect on RXRα reporter activity ([8]; 3 μM ritonavir): no effect
- activation of Gal-RXR ([8]; ritonavir dose response, same doses as for SXR): failed to activate
- effect on PPARγ reporter activity [9]: no effect
- effect on retinoic acid receptor α reporter activity [10]: no effect
- effect on LXRα reporter activity ([3]; 3 μM ritonavir): no effect
- effect on CARβ reporter activity ([11]; 3 μM ritonavir): no effect
- MRP2 mRNA expression ([12]; primary human hepatocytes, 3 μM ritonavir, 24 hour): activated expression
- effect on PPARα reporter activity ([5]; 3 μM ritonavir): no effect
- effect on thyroid hormone receptor β reporter activity [13]: no effect
- effect on estrogen receptor α reporter activity [14]: no effect

Compound: C[C@@]12CCC[C@H]1[C@@H]1CC[C@H]3C[C@@H](O)CC[C@]3(C)[C@H]1CC2 [androstanol]
- fold repression by cognate ligand (positive control) ([11]; 5 μM): 50 fold
- effect on transcriptional activity of CARβ ([11]; LXRE×3-TK-luc reporter, 5 μM androstanol or 50 nM ET-743): inhibited

Compound: hyperforin
- MRP2 mRNA expression [12]: induced expression

Source: patent publication US20020061836A1, “Methods for altering SXR activation using peptide mimetic HIV protease inhibitor SXR ligands” (priority 2000, published 2002)
